Measured values from patent US11465972B2, “Inhibitors of oxidized low-density lipoprotein receptor 1 and methods of use thereof” (United States Government as represented by the Department …, priority 2015, dated 2022).
“Also recorded” adds a separate entry of the source.

Columns and labels:
LOX-1 protein expression = assay: ox-LDL-induced LOX-1 protein expression in HUVECs (Western blotting); type: cell-based, human; conditions: 200 nM, 5 μg/ml ox-LDL
Procedure: FIG. 3A, FIG. 3B, FIG. 3C and FIG. 3D depict the inhibitory effect of the lead compounds on Dil-ox-LDL uptake by HUVECs and CHO cells (measured by flow cytometry) and the effect of the lead compounds on ox-LDL-induced LOX-1 mRNA and protein expression. (FIG. 3A) (Upper Panel) Flow cytometry measurements using HUVECs in the presence of the five lead compounds (Mol-1-Mol-5), each a at 200 nM concentration. (Lower Panel) The percentage of internalized ox-LDL. Graphs show data as mean (±SD); n=4. *P<0.01 or <0.05 vs. control. (FIG. 3B) IC50 value for Mol-5. IC50 value (in nM) is based on inhibition of Dil-ox-LDL uptake in CHO cells overexpressing human LOX-1. Graphs show data as mean (±SD); n=5. *P<0.01 or <0.05 vs. control. (FIG. 3C) Western blotting assay showing LOX-1 protein expression in HUVECs following incubation with 200 nM Mol-1 to Mol-5 for 30 min, and subsequently exposure to 5 μg/mL ox-LDL for 6 hours. (FIG. 3D) The variation of LOX-1 mRNA expression levels at different concentrations of the compounds following exposure of HUVECs to 5 μg/mL ox-LDL. The concentrations are indicated on the X-axis and the LOX-1 mRNA levels are shown on the Y-axis. The plots for all the five molecules are shown in separate colors. Graphs show data as mean (±SD); n=3. *P<0.01 vs. control; #P<0.01 vs. ox-LDL group.
Internalization of ox-LDL via binding to LOX-1 activates endothelial cells and upregulates the expression of LOX-1^2. In this study, it was tested if the lead molecules would inhibit LOX-1 expression. Accordingly, LOX-1 protein expression in HUVECs was measured by Western blotting.
HUVECs were plated into 6-well cell culture plates. […] The protein concentrations were measured by Bradford protein assay. […] The protein bands were scanned by a Gel Doc™ XR System (Bio-Rad, Hercules, Calif.), and the density of each band was quantified by Image J software. The relative expression of target proteins was calculated with comparison to […] bands.

[1] = test system: VCAM-1 protein expression; assay: ox-LDL-induced VCAM-1 protein expression in HUVECs (Western blotting); type: cell-based, human; conditions: 200 nM, 5 μg/ml ox-LDL
Procedure: FIG. 4A, FIG. 4B, FIG. 4C, FIG. 4D and FIG. 4E depict the effect of lead molecules on ox-LDL-induced the activation of MAPKs in HUVECs, VCAM-1 expression and monocyte adhesion onto HUVECs. […] (FIG. 4B) Western blot analyses showing phospho-p38MAPK expression in HUVECs following exposure to 200 nM of each compound for 30 min, and subsequently exposed to 5 μg/mL ox-LDL for 6 hours. […] (FIG. 4D) The variation of VCAM-1 mRNA expression levels with different concentrations of the led compounds. The concentrations are indicated on the X-axis and the VCAM-1 mRNA levels are shown on the Y-axis. The plots for all five molecules are shown in separate colors. […] Graphs show data as mean (±SD); n=3 (for Western blot and PCR assays) or n=20 (for monocyte adhesion assay). *P<0.01 vs. control; #P<0.01 or <0.05 vs. ox-LDL group.
(§1) It is known that the activation of LOX-1 by ox-LDL in endothelial cells stimulates the expression of leukocyte adhesion molecules^26. In this study, VCAM-1 expression in HUVECs in the presence of 5 μg/ml ox-LDL was measured. […] VCAM-1 mRNA expression in HUVECs exposed to 5 μg/mL ox-LDL for 6 hrs was also measured.
HUVECs were plated into 6-well cell culture plates. When the cells were reached 70% confluence, they were treated with 200 nM of each of 5 molecules for 30 min, and subsequently exposed to […] ox-LDL for 6 h. After washing with PBS for 2 times, the cells were treated with Cell Lysis Buffer (Promega, Madison, Wis.) with protease Inhibitor and phosphatase Inhibitor (Sigma-Aldrich, St. Louis, Mo.). The protein concentrations were measured by Bradford protein assay. Proteins (20 tg) were separated by electrophoresis in 12% precast SDS-PAGE gels, and were transferred onto Nitrocellulose Blotting Membrane (GE Healthcare Life Science, Piscataway, N.J.). The membranes were then incubated with LOX-1, VCAM-1 (Abcam, Cambridge, Mass.), ERK1/2, phospho-ERK1/2, phospho-p38MAPK (Cell Signaling Technology, Inc., Danvers, Mass.), or […] (Santa Cruz Biotechnology, Inc., Dallas, Tex.) primary antibodies (1:1000˜1:2000) in blocking solution at 4° C. overnight. Following wash with TBS-1 for 3 times, the blots were incubated with HRP-conjugated secondary antibodies (1:10000) in blocking solution for 1 hour at room temperature. After 3 washes with PBS, the blots were treated with Western Blotting Luminol Reagents (Santa Cruz Biotechnology) for 3 min and then exposed to Blue Basic Autorad Film (GeneMate, Kaysville, Utah). The protein bands were scanned by a Gel Doc™ XR System (Bio-Rad, Hercules, Calif.), and the density of each band was quantified by Image J software. The relative expression of target proteins was calculated with comparison to […] bands.

VCAM-1 mRNA = assay: ox-LDL-induced VCAM-1 mRNA expression in HUVECs (q-PCR); type: cell-based, human; conditions: 5 μg/mL ox-LDL for 6 hrs
Procedure: FIG. 4A, FIG. 4B, FIG. 4C, FIG. 4D and FIG. 4E depict the effect of lead molecules on ox-LDL-induced the activation of MAPKs in HUVECs, VCAM-1 expression and monocyte adhesion onto HUVECs. […] (FIG. 4B) Western blot analyses showing phospho-p38MAPK expression in HUVECs following exposure to 200 nM of each compound for 30 min, and subsequently exposed to 5 μg/mL ox-LDL for 6 hours. […] (FIG. 4D) The variation of VCAM-1 mRNA expression levels with different concentrations of the led compounds. The concentrations are indicated on the X-axis and the VCAM-1 mRNA levels are shown on the Y-axis. The plots for all five molecules are shown in separate colors. […]
as §1
HUVECs were plated into 12-well plates, and treated with 0, 20, 200 and 2000 nM of each of 5 molecules […] for 30 min, and subsequently exposed to […] ox-LDL for 6 h at 37° C. […] Data was analyzed by using MX3000P software. Relative mRNA expression was quantified using the comparative threshold cycle (Ct) method. […]

ECs = assay: Second dose response of ox-LDL uptake by ECs (lower concentrations); type: cell-based; conditions: second dose response curve, estimated
Procedure: FIG. 6A depicts the IC50 for Mol-5. The x-axis represents Mol-5 concentration (nM) and the y-axis represents ox-LDL uptake by ECs. FIG. 6B depicts the ox-LDL uptake with Mol-5 inhibition.
For further characterization, human endothelial cells and fluorescently-labeled Dil-ox-LDL were used for measuring initiation of atherogenic process based on interaction of vascular wall with ox-LDL. Ox-LDL uptake by human umbilical vein endothelial cells (HUVECs) was measured after exposure to 200 nM of each compound using flow cytometry. […] The dose response to modulation of ox-LDL uptake by Mol-5 (0, 20, 200 and 2000 nM) was also measured in CHO cells overexpressing human LOX-1. […] A second dose response curve was conducted to narrow in on the effect of lower concentrations of Mol-5 on ox-LDL uptake (FIG. 6A). Using this information the EC50 was estimated to be […] (FIG. 6B).

Structure (SMILES) | effect on ox-LDL-induced LOX-1 protein expression (LOX-1 protein expression) | effect on ox-LDL-induced VCAM-1 protein expression [1] | effect on ox-LDL-mediated VCAM-1 mRNA upregulation (VCAM-1 mRNA) | effect on ox-LDL-induced VCAM-1 protein expression ([1]; listed as MoL-4) | EC50 (ECs) [µM]
CCOCCCNC(=O)CCN1C(=O)COc2ccccc21 [Mol-1] | significantly reduced | significantly reduced | – | – | –
CCCn1c(CCNC(=O)CCCO)nc2ccccc21 [Mol-4] | significantly reduced | significantly inhibited | significantly reduced; also recorded: significantly inhibited | significantly reduced | –
Cc1cc(C)n(CC(O)COc2ccccc2)n1 (stereo not shown) [Mol-5, 1-(3,5-dimethyl-1H-pyrazol-1-yl)-3-phenoxypropan-2-ol] | significantly reduced | significantly reduced; also recorded: significantly inhibited | significantly reduced; also recorded: significantly inhibited | – | 0.064
